The values below are quoted from earlier work in patent US8846104B2, “Pharmaceutical compositions for the deterrence and/or prevention of abuse” (priority 2006, dated 2014).

The subject of the data set is mu over delta sites.

Consider `O=C1CC[C@@]2(O)[C@H]3Cc4ccc(O)c5c4[C@@]2(CCN3CC2CC2)[C@H]1O5` [naltrexone], for which the “blocking action, site preference” value is listed as “strong preferential blocking action against mu over delta sites”.
